Test results from paper PMC9898036, “VIP152 is a selective CDK9 inhibitor with pre-clinical in vitro and in vivo efficacy in chronic lymphocytic leukemia” (Leukemia, 2022).

Assays:
Test in all cases: DiscoverX KINOMEscan kinase profiling (468 assays)
Type in all cases: binding
human kinome [1] = biological target: human kinome (Homo sapiens, UniProt Q9Y616); settings: IRAK3; 100 nM; read-out: Percent Control
Method in brief: (§1)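 DNA-tagged kinases competed for immobilized biotinylated ligands on streptavidin magnetic beads, with bound kinase quantified by qPCR. VIP152 in DMSO was tested against a DMSO control.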

human kinome [2] = biological target: human kinome (Homo sapiens, UniProt O00238); settings: BMPR1B; 100 nM; read-out: Percent Control
Chain of human kinome (Homo sapiens, UniProt O00238) (O00238 14-502): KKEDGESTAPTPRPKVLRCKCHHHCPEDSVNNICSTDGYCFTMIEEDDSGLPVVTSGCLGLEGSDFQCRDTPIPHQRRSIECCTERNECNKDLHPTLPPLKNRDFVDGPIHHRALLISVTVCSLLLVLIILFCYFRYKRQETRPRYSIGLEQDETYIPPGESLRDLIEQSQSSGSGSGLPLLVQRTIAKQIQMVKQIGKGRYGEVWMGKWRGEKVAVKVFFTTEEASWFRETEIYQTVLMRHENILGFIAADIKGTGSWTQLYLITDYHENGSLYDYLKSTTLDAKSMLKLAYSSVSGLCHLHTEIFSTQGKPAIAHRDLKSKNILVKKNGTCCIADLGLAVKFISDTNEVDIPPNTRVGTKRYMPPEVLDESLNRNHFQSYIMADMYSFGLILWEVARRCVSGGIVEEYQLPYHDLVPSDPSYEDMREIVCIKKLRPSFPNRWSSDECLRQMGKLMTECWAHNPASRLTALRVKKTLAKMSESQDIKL
Method in brief: as §1

human kinome [3] = biological target: human kinome (Homo sapiens, UniProt P42679); settings: CTK (Entrez MATK); 100 nM; read-out: Percent Control
Method in brief: as §1

human kinome [4] = biological target: human kinome (Homo sapiens, UniProt Q9UHD2); settings: kinase TBK1 (Entrez TBK1); compound concentration 1000 nM; read-out: Percent Control
Chain of human kinome (Homo sapiens, UniProt Q9UHD2) (Q9UHD2 whole entry): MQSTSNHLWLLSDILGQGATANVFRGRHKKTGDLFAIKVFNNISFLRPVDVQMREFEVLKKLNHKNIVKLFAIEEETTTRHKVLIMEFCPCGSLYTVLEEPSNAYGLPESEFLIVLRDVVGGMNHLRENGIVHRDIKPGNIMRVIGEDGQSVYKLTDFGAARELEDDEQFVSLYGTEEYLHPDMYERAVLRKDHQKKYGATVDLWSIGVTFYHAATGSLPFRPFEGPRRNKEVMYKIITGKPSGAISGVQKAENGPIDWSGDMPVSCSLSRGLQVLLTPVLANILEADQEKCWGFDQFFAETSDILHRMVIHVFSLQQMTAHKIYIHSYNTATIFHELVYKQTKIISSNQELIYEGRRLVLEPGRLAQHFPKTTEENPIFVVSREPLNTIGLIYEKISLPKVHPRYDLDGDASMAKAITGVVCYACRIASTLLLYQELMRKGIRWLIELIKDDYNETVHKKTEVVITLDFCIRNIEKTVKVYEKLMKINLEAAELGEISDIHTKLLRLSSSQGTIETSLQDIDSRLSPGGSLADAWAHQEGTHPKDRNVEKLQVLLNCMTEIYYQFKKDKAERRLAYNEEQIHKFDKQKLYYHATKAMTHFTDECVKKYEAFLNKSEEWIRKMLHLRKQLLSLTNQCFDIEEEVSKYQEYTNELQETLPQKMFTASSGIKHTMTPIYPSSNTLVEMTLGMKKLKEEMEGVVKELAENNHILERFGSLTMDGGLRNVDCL
Method in brief: as §1

human kinome [5] = biological target: human kinome (Homo sapiens, UniProt P22607, G697C); settings: FGFR3(G697C); 100 nM; read-out: Percent Control
Method in brief: as §1

human kinome [6] = biological target: human kinome (Homo sapiens, UniProt Q9Y2H9); settings: MAST1; 100 nM; read-out: Percent Control
Method in brief: as §1

human kinome [7] = biological target: human kinome (Homo sapiens, UniProt Q13043); settings: MST1 (Entrez STK4); 100 nM; read-out: Percent Control
Method in brief: as §1

human kinome [8] = biological target: human kinome (Homo sapiens, UniProt Q9NYL2); settings: kinase ZAK (Entrez ZAK); compound concentration 1000 nM; read-out: Percent Control
Method in brief: as §1

human kinome [9] = biological target: human kinome (Homo sapiens, UniProt Q09013); settings: DMPK; 100 nM; read-out: Percent Control
Method in brief: as §1

human kinome [10] = biological target: human kinome (Homo sapiens, UniProt P80192); settings: MLK1 (Entrez MAP3K9); 100 nM; read-out: Percent Control
Method in brief: as §1

human kinome [11] = biological target: human kinome (Homo sapiens, UniProt Q7L7X3); settings: kinase TAOK1 (Entrez TAOK1); compound concentration 1000 nM; read-out: Percent Control
Method in brief: as §1

human kinome [12] = biological target: human kinome (Homo sapiens, UniProt Q8WU08); settings: kinase YANK1 (Entrez STK32A); compound concentration 1000 nM; read-out: Percent Control
Method in brief: as §1

human kinome [13] = biological target: human kinome (Homo sapiens, UniProt O95382); settings: ASK2 (Entrez MAP3K6); 100 nM; read-out: Percent Control
Method in brief: as §1

human kinome [14] = biological target: human kinome (Homo sapiens, UniProt Q8TF76); settings: HASPIN (Entrez GSG2); 100 nM; read-out: Percent Control
Chain of human kinome (Homo sapiens, UniProt Q8TF76) (Q8TF76 whole entry): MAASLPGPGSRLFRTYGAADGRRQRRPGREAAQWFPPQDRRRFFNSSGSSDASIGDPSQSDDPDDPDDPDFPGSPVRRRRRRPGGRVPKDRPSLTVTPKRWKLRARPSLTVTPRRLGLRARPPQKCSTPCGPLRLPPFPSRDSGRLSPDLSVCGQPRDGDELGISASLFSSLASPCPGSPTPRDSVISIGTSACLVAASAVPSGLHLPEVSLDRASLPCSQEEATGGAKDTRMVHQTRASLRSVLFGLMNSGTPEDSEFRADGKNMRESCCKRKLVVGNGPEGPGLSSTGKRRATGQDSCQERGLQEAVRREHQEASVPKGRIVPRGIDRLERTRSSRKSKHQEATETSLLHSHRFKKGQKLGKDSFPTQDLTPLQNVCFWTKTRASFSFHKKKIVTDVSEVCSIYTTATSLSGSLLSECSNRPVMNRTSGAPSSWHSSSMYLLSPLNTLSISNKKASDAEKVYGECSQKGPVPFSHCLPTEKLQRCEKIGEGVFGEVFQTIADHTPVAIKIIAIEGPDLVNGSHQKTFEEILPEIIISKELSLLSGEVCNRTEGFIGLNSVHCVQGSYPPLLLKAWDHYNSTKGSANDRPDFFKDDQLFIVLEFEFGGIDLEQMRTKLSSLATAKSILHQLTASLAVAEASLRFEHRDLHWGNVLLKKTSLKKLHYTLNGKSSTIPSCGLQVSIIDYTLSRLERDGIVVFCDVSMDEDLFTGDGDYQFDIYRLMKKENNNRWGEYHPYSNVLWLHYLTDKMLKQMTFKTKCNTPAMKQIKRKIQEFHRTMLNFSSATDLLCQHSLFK
Method in brief: as §1

human kinome [15] = biological target: human kinome (Homo sapiens, UniProt Q9UF33); settings: EPHA6; 100 nM; read-out: Percent Control
Method in brief: as §1

human kinome [16] = biological target: human kinome (Homo sapiens, UniProt Q8NFD2); settings: ANKK1; 100 nM; read-out: Percent Control
Method in brief: as §1

human kinome [17] = biological target: human kinome (Homo sapiens, UniProt Q16539); settings: read-out: Percent Control
Chain of human kinome (Homo sapiens, UniProt Q16539) (Q16539 whole entry): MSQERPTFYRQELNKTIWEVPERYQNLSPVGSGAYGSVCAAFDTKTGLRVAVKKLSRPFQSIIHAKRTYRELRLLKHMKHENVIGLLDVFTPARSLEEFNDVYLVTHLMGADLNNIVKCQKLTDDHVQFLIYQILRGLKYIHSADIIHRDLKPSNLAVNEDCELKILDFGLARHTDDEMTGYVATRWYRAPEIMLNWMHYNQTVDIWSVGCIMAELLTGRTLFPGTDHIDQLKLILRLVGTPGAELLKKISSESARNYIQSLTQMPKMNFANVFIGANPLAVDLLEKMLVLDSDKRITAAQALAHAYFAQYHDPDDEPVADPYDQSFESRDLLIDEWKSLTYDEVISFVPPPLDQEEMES
Method in brief: as §1

human kinome [18] = biological target: human kinome (Homo sapiens, UniProt O95747); settings: read-out: Percent Control
Chain of human kinome (Homo sapiens, UniProt O95747) (O95747 whole entry): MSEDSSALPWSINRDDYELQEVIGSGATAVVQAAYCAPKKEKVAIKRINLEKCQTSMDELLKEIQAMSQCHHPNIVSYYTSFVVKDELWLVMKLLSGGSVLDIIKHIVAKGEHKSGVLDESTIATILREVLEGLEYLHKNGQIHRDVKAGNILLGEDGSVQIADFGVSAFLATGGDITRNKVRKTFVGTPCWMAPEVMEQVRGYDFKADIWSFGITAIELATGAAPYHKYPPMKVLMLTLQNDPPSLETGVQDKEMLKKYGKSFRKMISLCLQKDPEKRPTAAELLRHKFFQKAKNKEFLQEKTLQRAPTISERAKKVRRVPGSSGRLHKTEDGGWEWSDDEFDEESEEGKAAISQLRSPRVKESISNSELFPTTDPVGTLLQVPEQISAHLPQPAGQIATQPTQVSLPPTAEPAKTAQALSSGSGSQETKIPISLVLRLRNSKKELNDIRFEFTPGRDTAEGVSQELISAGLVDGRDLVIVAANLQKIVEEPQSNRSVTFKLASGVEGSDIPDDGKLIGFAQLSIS
Method in brief: as §1

human kinome [19] = biological target: human kinome (Homo sapiens, UniProt Q5VT25); settings: MRCKA (Entrez CDC42BPA); 100 nM; read-out: Percent Control
Method in brief: as §1

human kinome [20] = biological target: human kinome (Homo sapiens, UniProt Q5S007, G2019S); settings: LRRK2(G2019S); 100 nM; read-out: Percent Control
Method in brief: as §1

human kinome [21] = biological target: human kinome (Homo sapiens, UniProt P42681); settings: kinase TXK (Entrez TXK); compound concentration 1000 nM; read-out: Percent Control
Method in brief: as §1

human kinome [22] = biological target: human kinome (Homo sapiens, UniProt P54760); settings: EPHB4; 100 nM; read-out: Percent Control
Method in brief: as §1

human kinome [23] = biological target: human kinome (Homo sapiens, UniProt Q56UN5); settings: kinase YSK4 (Entrez MAP3K19); compound concentration 1000 nM; read-out: Percent Control
Method in brief: as §1

human kinome [24] = biological target: human kinome (Homo sapiens, UniProt P42336, H1047Y); settings: read-out: Percent Control
Chain of human kinome (Homo sapiens, UniProt P42336, H1047Y) (P42336 whole entry H1047Y): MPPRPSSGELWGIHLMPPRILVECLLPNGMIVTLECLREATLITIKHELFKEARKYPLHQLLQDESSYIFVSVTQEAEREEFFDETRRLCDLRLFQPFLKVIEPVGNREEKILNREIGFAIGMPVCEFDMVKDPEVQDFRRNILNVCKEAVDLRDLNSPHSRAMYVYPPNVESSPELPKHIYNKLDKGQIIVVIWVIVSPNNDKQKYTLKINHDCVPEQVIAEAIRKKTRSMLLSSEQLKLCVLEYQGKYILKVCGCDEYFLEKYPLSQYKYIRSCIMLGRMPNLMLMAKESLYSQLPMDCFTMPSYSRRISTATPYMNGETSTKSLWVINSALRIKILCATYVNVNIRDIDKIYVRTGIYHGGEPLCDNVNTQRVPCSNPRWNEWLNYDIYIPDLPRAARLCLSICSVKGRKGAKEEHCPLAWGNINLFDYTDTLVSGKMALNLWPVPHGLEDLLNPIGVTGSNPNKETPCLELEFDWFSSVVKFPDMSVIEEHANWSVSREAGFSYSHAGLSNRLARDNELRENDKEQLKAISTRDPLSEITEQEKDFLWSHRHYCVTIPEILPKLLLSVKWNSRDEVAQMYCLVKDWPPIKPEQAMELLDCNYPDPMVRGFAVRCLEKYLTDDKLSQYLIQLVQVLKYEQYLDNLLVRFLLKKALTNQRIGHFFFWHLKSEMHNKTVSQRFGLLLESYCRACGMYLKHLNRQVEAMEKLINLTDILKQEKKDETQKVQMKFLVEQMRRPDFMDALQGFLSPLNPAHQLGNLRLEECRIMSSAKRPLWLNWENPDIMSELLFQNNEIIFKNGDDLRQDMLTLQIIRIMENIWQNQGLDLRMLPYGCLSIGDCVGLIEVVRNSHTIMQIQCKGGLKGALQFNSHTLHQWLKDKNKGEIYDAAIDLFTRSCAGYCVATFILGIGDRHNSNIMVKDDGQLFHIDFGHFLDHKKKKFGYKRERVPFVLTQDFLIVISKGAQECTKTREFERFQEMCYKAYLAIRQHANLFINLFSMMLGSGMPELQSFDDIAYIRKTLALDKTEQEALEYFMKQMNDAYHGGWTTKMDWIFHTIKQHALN
Method in brief: as §1

human kinome [25] = biological target: human kinome (Homo sapiens, UniProt Q05397); settings: FAK (Entrez PTK2); 100 nM; read-out: Percent Control
Method in brief: as §1

human kinome [26] = biological target: human kinome (Homo sapiens, UniProt P78356); settings: read-out: Percent Control
Chain of human kinome (Homo sapiens, UniProt P78356) (P78356 whole entry): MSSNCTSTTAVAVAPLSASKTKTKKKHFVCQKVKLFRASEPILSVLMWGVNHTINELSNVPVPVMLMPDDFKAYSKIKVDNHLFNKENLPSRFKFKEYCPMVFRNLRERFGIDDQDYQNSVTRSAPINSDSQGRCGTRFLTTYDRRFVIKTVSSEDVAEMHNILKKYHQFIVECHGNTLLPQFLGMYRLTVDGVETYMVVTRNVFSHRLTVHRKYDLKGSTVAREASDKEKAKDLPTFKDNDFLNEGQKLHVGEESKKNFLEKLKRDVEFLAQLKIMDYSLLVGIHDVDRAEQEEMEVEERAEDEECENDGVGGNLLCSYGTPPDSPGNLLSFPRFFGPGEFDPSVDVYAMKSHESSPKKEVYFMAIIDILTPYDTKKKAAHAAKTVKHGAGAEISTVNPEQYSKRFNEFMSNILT
Method in brief: as §1

human kinome [27] = biological target: human kinome (Homo sapiens, UniProt P42680); settings: kinase TEC (Entrez TEC); compound concentration 1000 nM; read-out: Percent Control
Chain of human kinome (Homo sapiens, UniProt P42680) (P42680 whole entry): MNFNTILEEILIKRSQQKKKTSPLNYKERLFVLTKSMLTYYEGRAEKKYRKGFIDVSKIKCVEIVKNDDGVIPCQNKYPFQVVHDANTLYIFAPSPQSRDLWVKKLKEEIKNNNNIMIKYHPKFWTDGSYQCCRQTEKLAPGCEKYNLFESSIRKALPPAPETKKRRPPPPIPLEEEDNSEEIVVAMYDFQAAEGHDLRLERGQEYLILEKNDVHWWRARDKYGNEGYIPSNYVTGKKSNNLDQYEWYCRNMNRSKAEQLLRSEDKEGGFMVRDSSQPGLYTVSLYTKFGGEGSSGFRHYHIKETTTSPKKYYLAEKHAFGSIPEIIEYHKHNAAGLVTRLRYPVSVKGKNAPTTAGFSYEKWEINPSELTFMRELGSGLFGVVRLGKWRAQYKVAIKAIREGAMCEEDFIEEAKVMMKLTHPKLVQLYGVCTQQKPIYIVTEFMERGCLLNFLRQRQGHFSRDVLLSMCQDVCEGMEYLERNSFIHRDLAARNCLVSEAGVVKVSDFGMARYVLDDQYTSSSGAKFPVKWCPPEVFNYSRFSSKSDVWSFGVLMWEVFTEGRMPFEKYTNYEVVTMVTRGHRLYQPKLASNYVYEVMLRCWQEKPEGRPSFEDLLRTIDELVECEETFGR
Method in brief: as §1

human kinome [28] = biological target: human kinome (Homo sapiens, UniProt P43405); settings: kinase SYK (Entrez SYK); compound concentration 1000 nM; read-out: Percent Control
Method in brief: as §1

human kinome [29] = biological target: human kinome (Homo sapiens, UniProt O15197); settings: EPHB6; 100 nM; read-out: Percent Control
Method in brief: as §1

COc1cc(F)ccc1-c1cc(Nc2cc(CS(C)(=N)=O)ccn2)ncc1F (stereo not drawn) [VIP152]
remaining binding at 0.1 µM (human kinome [1]): 90% | remaining binding at 0.1 µM (human kinome [2]): 95% | remaining binding at 0.1 µM (human kinome [3]): 95% | remaining binding at 1 µM (human kinome [4]): 100% | remaining binding at 0.1 µM (human kinome [5]): 100% | remaining binding at 0.1 µM (human kinome [6]): 94% | remaining binding at 0.1 µM (human kinome [7]): 99% | remaining binding at 1 µM (human kinome [8]): 79% | remaining binding at 0.1 µM (human kinome [9]): 96% | remaining binding at 0.1 µM (human kinome [10]): 100% | remaining binding at 1 µM (human kinome [11]): 62% | remaining binding at 1 µM (human kinome [12]): 97% | remaining binding at 0.1 µM (human kinome [13]): 100% | remaining binding at 0.1 µM (human kinome [14]): 93% | remaining binding at 0.1 µM (human kinome [15]): 100% | remaining binding at 0.1 µM (human kinome [16]): 100% | remaining binding at 1 µM (human kinome [17]; kinase p38-alpha (Entrez MAPK14), compound concentration 1000 nM): 100% | remaining binding at 0.1 µM (human kinome [17]; p38-alpha (Entrez MAPK14), 100 nM): 100% | remaining binding at 0.1 µM (human kinome [18]; OSR1 (Entrez OXSR1), 100 nM): 100% | remaining binding at 1 µM (human kinome [18]; kinase OSR1 (Entrez OXSR1), compound concentration 1000 nM): 100% | remaining binding at 0.1 µM (human kinome [19]): 100% | remaining binding at 0.1 µM (human kinome [20]): 100% | remaining binding at 1 µM (human kinome [21]): 83% | remaining binding at 0.1 µM (human kinome [22]): 100% | remaining binding at 1 µM (human kinome [23]): 19% | remaining binding at 0.1 µM (human kinome [24]; PIK3CA(H1047Y), 100 nM): 74% | remaining binding at 1 µM (human kinome [24]; kinase PIK3CA(H1047Y) (Entrez PIK3CA), compound concentration 1000 nM): 85% | remaining binding at 0.1 µM (human kinome [25]): 100% | remaining binding at 0.1 µM (human kinome [26]; PIP5K2B (Entrez PIP4K2B), 100 nM): 100% | remaining binding at 1 µM (human kinome [26]; kinase PIP5K2B (Entrez PIP4K2B), compound concentration 1000 nM): 100% | remaining binding at 1 µM (human kinome [27]): 100% | remaining binding at 1 µM (human kinome [28]): 38% | remaining binding at 0.1 µM (human kinome [29]): 87%
